{"source": "patent US6342486B1", "about": "“Polymer glucan ether derivatives, their manufacturing as well as their use” (Mibelle AG Cosmetics, priority 1996, dated 2002)", "origin": "cited, not measured here", "details": "isolated glucan from yeast cells"}
{"substance": "1,3-beta-polyglucose [glucan]", "values": [{"measurement": "solubility in aqueous systems", "value": "extremely low solubility"}]}
